Here are results for one compound from PMC4472624, “Pharmacokinetics of daptomycin in patients undergoing low-flow continuous venovenous hemodiafiltration” (Critical Care, 2015).

Read-outs that look alike come from different tables or passages of the source.

Series [1] in a line: Pharmacokinetics of daptomycin in patients undergoing low-flow CVVHDF. It is filed as in vivo, human. Particulars: 6 mg/kg i.v. every 48 hours, HPLC; for AUC / half-life: 6 mg/kg; for AUC: read-out: area under the concentration-time curve (AUC); for half-life: read-out: elimination half-life (t1/2) (converted). As to the method:
DAP (6 mg/kg) was administered intravenously every 48 hours to CVVHDF patients in the ICU. Blood and filtrate samples were collected at 0, 1, 1.5, 2, 5, 12, 24, and 48 hours after infusion. All collected samples were analyzed using HPLC according to the method of Tobin et al.. Maximum concentration (Cmax), elimination half-life (t1/2), area AUC, Cmin, volume of distribution (Vd), clearance (CL), fraction unbound, and sieving coefficient (Sc) were evaluated. Patient characteristics and CVVHDF parameters including blood, dialysate, and filtration flow rates were recorded.

The conditions of series [2]: cited from earlier work. An excerpt: In Japan, CVVHDF is preferentially performed with lower flow rates. Investigating effects of flow rate on DAP removal during co ...
[3] abbreviates: low-flow CVVHDF, blood and filtrate samples, mean of three patients.
[4] abbreviates: human, blood, iv, low-flow CVVHDF, single patient, first listed.
Setting [5] is: human, blood, iv, low-flow CVVHDF, single patient, second listed.
The mark [6] stands for this setting: human, blood, iv, low-flow CVVHDF, single patient, third listed.

The fraction unbound is free concentration divided by total concentration. A higher fraction unbound goes with weak binding. By clearance is commonly meant the volume of plasma or blood freed of the substance per unit of time. Broadly, the Vd is a proportionality between amount in the body and measured concentration, not a real space. As to `CCCCCCCCCC(=O)N[C@@H](Cc1c[nH]c2ccccc12)C(=O)N[C@H](CC(N)=O)C(=O)N[C@@H](CC(=O)O)C(=O)N[C@@H]1C(=O)NCC(=O)N[C@@H](CCCN)C(=O)N[C@@H](CC(=O)O)C(=O)N[C@H](C)C(=O)N[C@@H](CC(=O)O)C(=O)NCC(=O)N[C@H](CO)C(=O)N[C@@H]([C@H](C)CC(=O)O)C(=O)N[C@@H](CC(=O)c2ccccc2N)C(=O)O[C@@H]1C` [DAP, daptomycin], the “trough serum concentration (Cmin)” value worked out at 2300 ng/mL in series [1] (low-flow CVVHDF, single patient, first listed); 24700 ng/mL in series [1] (low-flow CVVHDF, single patient, second listed); 14000 ng/mL in series [1] (low-flow CVVHDF, single patient, third listed). The CL of dialyzer in series [1] (setting [3]) was determined as 1.20 ± 0.39 mL/min; in series [1] (low-flow CVVHDF, blood and filtrate samples, single patient, first listed) it was 1.70 mL/min; in series [1] (low-flow CVVHDF, blood and filtrate samples, single patient, second listed) it was 0.88 mL/min; in series [1] (low-flow CVVHDF, blood and filtrate samples, single patient, third listed), 0.96 mL/min. Also, the “sieving coefficient (Sc)” value in series [1] (setting [3]) is 0.08 ± 0.03. The AUC in series [1] (setting [4]) was 471 µg·h/mL; in series [1] (setting [5]) it was 967 µg·h/mL; in series [1] (setting [6]), 1260 µg·h/mL. In addition, the half-life is 18.6 h in series [1] (setting [4]), 11.5 h in series [1] (setting [5]) and 70.5 h in series [1] (setting [6]). Moreover, in series [1] (human, blood, iv, ICU patients on low-flow CVVHDF, mean of three patients), the fraction unbound is 0.058. In addition, in series [1] (human, blood, iv, ICU patients on low-flow CVVHDF, mean of three patients, read-out: clearance (CL)), the clearance came to 9.47 ± 4.56 mL/min. In series [1] (human, blood, iv, ICU patients on low-flow CVVHDF, mean of three patients, read-out: volume of distribution (Vd)), the Vd is 26 ± 20.9 L. Moreover, the Cmax in series [1] (human, iv, ICU patients on low-flow CVVHDF, blood samples 0-48 hours, mean of three patients, read-out: Maximum concentration (Cmax)) came out at 50100 ± 12700 ng/mL. Besides, the “AUC/MIC required to obtain clinical success” value in series [2] was 1,061 mg hour/l.
